Reference: patent publication US20190105367A1, “ANTIMICROBIAL 4-OXOQUINOLIZINES” (Emergent Product Development Gaithersburg Inc., priority 2011, published 2019)
Values after ≈ are worked out from the molar mass of the structure shown. Like-named read-outs stand apart in the source and are kept apart here.

Tests used:
A. baumannii A472 [1] = test: Preliminary MBC without and with sub-inhibitory polymyxin B (Example 4); type: cell-based, Acinetobacter baumannii; settings: Acinetobacter baumannii, preliminary MBC
A. baumannii A387 [2] = test: MIC without and with sub-inhibitory polymyxin B (Example 4); type: cell-based, Acinetobacter baumannii; settings: for MIC without PB/MIC + PB: A. baumannii A387; for MIC: Acinetobacter baumannii
A. baumannii J2 = test: as above; type: cell-based, Acinetobacter baumannii; settings: for MIC without PB/MIC + PB: A. baumannii J2; for MIC: Acinetobacter baumannii
A. baumannii A390 [3] = test: as above; type: cell-based, Acinetobacter baumannii; settings: +0.06 μg/ml PB, 2nd experiment
A. baumannii A401 [4] = test: Preliminary MBC without and with sub-inhibitory polymyxin B (Example 4); type: cell-based, Acinetobacter baumannii; settings: Acinetobacter baumannii
[5] = test system: strains of A. baumannii and one strain of Acinetobacter sp.; test: MIC with sub-inhibitory concentrations (0.25x MIC) of polymyxin B, panel of Acinetobacter strains (Example 4); type: cell-based
A. baumannii ATCC 19606 = test: MIC without and with sub-inhibitory polymyxin B (Example 4); type: cell-based, Acinetobacter baumannii; settings: for MIC without PB/MIC + PB: A. baumannii ATCC 19606; for MIC: Acinetobacter baumannii
A. baumannii NCTC 13301 [6] = test: as above; type: cell-based, Acinetobacter baumannii
A. baumannii A489 = test: Preliminary MBC without and with sub-inhibitory polymyxin B (Example 4); type: cell-based, Acinetobacter baumannii; settings: Acinetobacter baumannii, preliminary MBC
A. baumannii NCTC 13301 [7] = test: MIC without and with sub-inhibitory polymyxin B (Example 4); type: cell-based, Acinetobacter baumannii; settings: +[…] PB, 2nd experiment
A. baumannii A14 [8] = test: as above; type: cell-based, Acinetobacter baumannii; settings: 1st experiment
A. baumannii A329 [9] = test: Preliminary MBC without and with sub-inhibitory polymyxin B (Example 4); type: cell-based, Acinetobacter baumannii; settings: Acinetobacter baumannii, A329, A. baumannii A329, +0.06 μg/ml PB, 2nd experiment, read-out: MBC
A. baumannii A390 [10] = test: as above; type: cell-based, Acinetobacter baumannii; settings: Acinetobacter baumannii, A390, A. baumannii A390, +0.06 μg/ml PB, 2nd experiment, read-out: MBC
How it was run: (§1)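 Incubation 18-20 h, 37° C. MBC = lowest conc. with ~90% fewer colonies than positive control (single/no colonies).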

A. baumannii A473 [11] = test: as above; type: cell-based, Acinetobacter baumannii; settings: Acinetobacter baumannii, A473, A. baumannii A473, +0.06 μg/ml PB, 2nd experiment, read-out: MBC
How it was run: as §1

A. baumannii NCTC 13301 [12] = test: as above; type: cell-based, Acinetobacter baumannii; settings: Acinetobacter baumannii
How it was run: as §1

A. baumannii A14 [13] = test: as above; type: cell-based, Acinetobacter baumannii; settings: 2nd experiment
How it was run: as §1

A. baumannii A387 [14] = test: as above; type: cell-based, Acinetobacter baumannii; settings: Acinetobacter baumannii
A. baumannii A14 [15] = test: MIC without and with sub-inhibitory polymyxin B (Example 4); type: cell-based, Acinetobacter baumannii; settings: 2nd experiment
[16] = test system: Acinetobacter sp. (H064200250); test: as above; type: cell-based; settings: for MIC: Acinetobacter
A. baumannii A401 [17] = test: as above; type: cell-based, Acinetobacter baumannii
A. baumannii A329 [18] = test: as above; type: cell-based, Acinetobacter baumannii; settings: +0.06 μg/ml PB, 2nd experiment
A. baumannii A473 [19] = test: as above; type: cell-based, Acinetobacter baumannii; settings: +0.06 μg/ml PB, 2nd experiment
A. baumannii A472 [20] = test: as above; type: cell-based, Acinetobacter baumannii; settings: for MIC: Acinetobacter baumannii
A. baumannii A14 [21] = test: Preliminary MBC without and with sub-inhibitory polymyxin B (Example 4); type: cell-based, Acinetobacter baumannii; settings: Acinetobacter baumannii
[22] = ratio, PB 0.06 μg/ml, 1st experiment
[23] = A. baumannii A14, +0.06 μg/ml PB

Cc1c(-c2ccc(N)cc2)c(F)cn2c(=O)c(C(=O)O)cc(C3CC3)c12 [Compound 7, 8-(4-amino-phenyl)-1-cyclopropyl-7-fluoro-9-methyl-4-oxo-quinolizine-3-carboxylic acid]
MBC (A. baumannii A472 [1]; A472, A. baumannii A472, +[…] PB, 2nd experiment, read-out: MBC): ≤ 0.03 µg/mL | MBC (A. baumannii A472 [1]; A472, read-out: MBC +[…] PB, A. baumannii A472, +[…] polymyxin B, 1st experiment): ≤ 0.03 µg/mL | MIC without PB/MIC + PB (A. baumannii A387 [2]; +0.06 μg/ml PB, 2nd experiment): ≥64 | MIC without PB/MIC + PB (A. baumannii A387 [2]; [22]): ≥64 | MIC (A. baumannii A387 [2]; A387, A. baumannii A387, +0.06 μg/ml PB, 2nd experiment, read-out: MIC): ≤ 0.03 µg/mL | MIC (A. baumannii A387 [2]; A387, read-out: MIC +0.06 μg/ml PB, A. baumannii A387, +0.06 μg/ml polymyxin B, 1st experiment): ≤ 0.03 µg/mL | MIC without PB/MIC + PB (A. baumannii J2; +[…] PB, 2nd experiment): ≥128 | MIC without PB/MIC + PB (A. baumannii J2; ratio, PB […], 1st experiment): ≥512 | MIC (A. baumannii J2; J2, A. baumannii J2, +[…] PB, 2nd experiment, read-out: MIC): ≤ 0.03 µg/mL | MIC (A. baumannii J2; J2, read-out: MIC +[…] PB, A. baumannii J2, +[…] polymyxin B, 1st experiment): ≤ 0.03 µg/mL | MIC without PB/MIC + PB (A. baumannii A390 [3]; A. baumannii A390): 128 | MIC (A. baumannii A390 [3]; Acinetobacter baumannii, A390, A. baumannii A390, read-out: MIC): 0.125 µg/mL (≈ 0.355 µM) | MBC (A. baumannii A401 [4]; A401, A baumannii A 401, +0.06 μg/ml PB, 2nd experiment, read-out: MBC): 0.5 µg/mL (≈ 1.42 µM) | MBC (A. baumannii A401 [4]; A401, read-out: MBC +0.06 μg/ml PB, A baumannii A 401, +0.06 μg/ml polymyxin B, 1st experiment): 0.5 µg/mL | MIC range with PB (0.25x MIC) Oct. 1, 2008 n = 8 ([5]; 1st experiment, […] polymyxin B, ATCC 19606, A329, A390 and A473 not taken): ≤0.03 to 1 µg/mL | MIC range with PB (0.25x MIC) Oct. 14, 2008 n = 11 ([5]; 2nd experiment, 0.06 μg/ml polymyxin B, all strains except the ATCC strain): ≤0.03 to 2 µg/mL | MIC without PB/MIC + PB (A. baumannii ATCC 19606; +0.06 μg/ml PB, 2nd experiment): ≥8 | MIC without PB/MIC + PB (A. baumannii ATCC 19606; [22]): ≥16 | MIC (A. baumannii ATCC 19606; ATCC19606, A. baumannii ATCC 19606, +0.06 μg/ml PB, 2nd experiment, read-out: MIC): ≤ 0.03 µg/mL | MIC (A. baumannii ATCC 19606; ATCC19606, read-out: MIC +0.06 μg/ml PB, A. baumannii ATCC 19606, +0.06 μg/ml polymyxin B, 1st experiment): ≤ 0.03 µg/mL | MIC without PB/MIC + PB (A. baumannii NCTC 13301 [6]; A. baumannii NCTC 13301, ratio, PB […], 1st experiment): 256 | MIC (A. baumannii NCTC 13301 [6]; Acinetobacter baumannii, NCTC13301, read-out: MIC +[…] PB): 0.06 µg/mL (≈ 0.17 µM) | MBC (A. baumannii A489; A489, A. baumannii A489, +[…] PB, 2nd experiment, read-out: MBC): ≤ 0.03 µg/mL | MBC (A. baumannii A489; A489, read-out: MBC +[…] PB, A. baumannii A489, +[…] polymyxin B, 1st experiment): ≤ 0.03 µg/mL | MIC without PB/MIC + PB (A. baumannii NCTC 13301 [7]; A. baumannii NCTC 13301): ≥512 | MIC (A. baumannii NCTC 13301 [7]; Acinetobacter baumannii, NCTC13301, A. baumannii NCTC 13301, read-out: MIC): ≤ 0.03 µg/mL | MIC +0.06 μg/ml PB (A. baumannii A14 [8]; +0.06 μg/ml polymyxin B): 1 µg/mL | MIC without PB/MIC + PB (A. baumannii A14 [8]; ratio, PB 0.06 μg/ml): 32 | MBC (A. baumannii A329 [9]): 2 µg/mL (≈ 5.68 µM) | MBC (A. baumannii A390 [10]): 0.125 µg/mL (≈ 0.355 µM) | MBC (A. baumannii A473 [11]): 0.06 µg/mL (≈ 0.17 µM) | MBC (A. baumannii NCTC 13301 [12]; NCTC13301, A. baumannii NCTC 13301, +[…] PB, preliminary MBC, 2nd experiment, read-out: MBC): ≤ 0.03 µg/mL | MBC (A. baumannii NCTC 13301 [12]; NCTC13301, read-out: MBC +[…] PB): 0.06 µg/mL (≈ 0.17 µM) | MBC (A. baumannii A14 [13]; [23]): 2 µg/mL (≈ 5.68 µM) | MBC (A. baumannii A14 [13]; Acinetobacter baumannii, A14, A. baumannii A14, without PB, read-out: MBC): 16 µg/mL (≈ 45.4 µM) | MBC (A. baumannii A387 [14]; A387, A. baumannii A387, +0.06 μg/ml PB, 2nd experiment, read-out: MBC): ≤ 0.03 µg/mL | MBC (A. baumannii A387 [14]; A387, read-out: MBC +0.06 μg/ml PB, A. baumannii A387, +0.06 μg/ml polymyxin B, 1st experiment): ≤ 0.03 µg/mL | MIC (A. baumannii A14 [15]; [23]): 2 µg/mL (≈ 5.68 µM) | MIC without PB/MIC + PB (A. baumannii A14 [15]; [23]): 8 | MIC (A. baumannii A14 [15]; Acinetobacter baumannii, A14, A. baumannii A14, without PB, read-out: MIC): 16 µg/mL (≈ 45.4 µM) | MIC without PB/MIC + PB ([16]; Acinetobacter spp. H064200250 (OXA51), +[…] PB, 2nd experiment): ≥512 | MIC without PB/MIC + PB ([16]; Acinetobacter spp. H064200250, ratio, PB […], 1st experiment): 32 | MIC ([16]; Acinetobacter spp. H064200250 (OXA51), +[…] PB, 2nd experiment, read-out: MIC): ≤ 0.03 µg/mL | MIC ([16]; read-out: MIC +[…] PB, Acinetobacter spp. H064200250, +[…] polymyxin B, 1st experiment): 0.25 µg/mL (≈ 0.709 µM) | MIC +0.06 μg/ml PB (A. baumannii A401 [17]; A baumannii A 401, +0.06 μg/ml polymyxin B, 1st experiment): 0.5 µg/mL | MIC without PB/MIC + PB (A. baumannii A401 [17]; A baumannii A 401, ratio, PB 0.06 μg/ml, 1st experiment): 8 | MIC (A. baumannii A401 [17]; Acinetobacter baumannii, A401, A baumannii A 401, +0.06 μg/ml PB, 2nd experiment, read-out: MIC): 1 µg/mL (≈ 2.84 µM) | MIC without PB/MIC + PB (A. baumannii A329 [18]; A. baumannii A329): 8 | MIC (A. baumannii A329 [18]; Acinetobacter baumannii, A329, A. baumannii A329, read-out: MIC): 2 µg/mL (≈ 5.68 µM) | MIC without PB/MIC + PB (A. baumannii A473 [19]; A. baumannii A473): 64 | MIC (A. baumannii A473 [19]; Acinetobacter baumannii, A473, A. baumannii A473, read-out: MIC): 0.06 µg/mL (≈ 0.17 µM) | MIC without PB/MIC + PB (A. baumannii A472 [20]; A. baumannii A472, ratio, PB […], 1st experiment): ≥128 | MIC (A. baumannii A472 [20]; A472, A. baumannii A472, +[…] PB, 2nd experiment, read-out: MIC): ≤ 0.03 µg/mL | MIC (A. baumannii A472 [20]; A472, read-out: MIC +[…] PB, A. baumannii A472, +[…] polymyxin B, 1st experiment): ≤ 0.03 µg/mL | MBC (A. baumannii A14 [21]; A14, read-out: MBC +0.06 μg/ml PB): 1 µg/mL (≈ 2.84 µM) | MBC (A. baumannii A14 [21]; A. baumannii A14, without polymyxin B, preliminary MBC, 1st experiment, read-out: MBC without PB): 16 µg/mL (≈ 45.4 µM)
